Counter-ions that a name gives are not always drawn.
Biological target: HSET full length protein (Homo sapiens (Human), UniProt Q9BW19)
Test: HSET ADP-Glo Assay S - 3 μM ATP
Type: biochemical
Conditions: 5 nM HSET, 70 μg/mL microtubule, 80 min at rt, read-out: COMBINED HSET ADP GLO IC50
Procedure: Example 281: Testing compounds of the present invention for inhibitory activities against HSET—HSET ADP-Glo Assay S—3 μM ATP
Reagents: (+4° C. Storage) • Paclitaxel Prod.No.TXD.01 2 mM in DMSO (from Universal Biologicals Cambridge). • Tubulin Protein (Pre-formed Microtubules): Bovine Brain Prod.No.MT001-XL Lot.025 10 mg/mL (from Universal Biologicals Cambridge).
Reagents: (−80° C. Storage) • MT001-XL—Tubulin Protein (Pre-formed Microtubules): Bovine Brain—reconstituted in buffer—15 mM PIPES pH7, 1 mM MgCl2, 20 μM paclitaxel (aliquots at 10 mg/mL) from Universal Biologicals Cambridge. • HSET full length protein—Current batch is FL HSET Prep1 (SEQ-000096_002-01_01) • Buffer is 20 mM Hepes pH 7.5, 200 mM NaCl, 2 mM TCEP, 5% glycerol (5 μL aliquots at 10.2 μM)
Reagents: (−20° C. Storage) • ADP-Glo Kinase Assay kit (Promega Prod.No.V9102) 10,000 assay points • ADP-Glo reagent (50 mL), Kinase Detection Reagent (100 mL), and Ultrapure ATP (10 mM) aliquoted
Buffer Stocks (filtered and stored at rt for up to 1 month) • HEPES acid, 4-(2-Hydroxyethyl)piperazine-1-ethanesulfonic acid MW:238, 238.3 mg/mL=1 M • 7149 mg/30 mL=1M (pH to 6.8 with 5 M NaOH) • PIPES, 1,4-Piperazinediethanesulfonic acid MW: 302.4, 30.24 mg/mL=100 mM; 907.2 mg/30 mL=100 mM (pH to 7 with 5 M NaOH, white cloudy suspension until the pH changes) • EGTA, Ethylene glycol-bis(2-aminoethylether)-N,N,N′,N′-tetraacetic acid MW: 380.35, 38.035 mg/mL=100 mM • 1901.75 mg/50 mL=100 mM (pH to ˜7 with 5 M NaOH)—takes a long time to get into solution and for pH to stabilize • Triton-X-100, MW: 625, 62.5 mg/mL=100 mM (6.25% w/v) (viscous, pipette Triton X-100 with a Gilson using a trimmed pipette tip)
ECHO Protocol • Create an ECHO intermediate plate by adding 24.5 μL DMSO to columns 1 & 2, and 40 μL DMSO to columns 23 & 24 of an ECHO 384PP plate • Add 100 nL of compound/DMSO per well in 384-well Proxi-Plate Plus (white) —Perkin Elmer Cat #6008289 using ECHO dose response protocol 100 nL normal to proxi_8pt_200 uM.
Assay buffer (Keep on ice): HEPES pH 6.8, MgCl2, EGTA, Triton X-100, DTT, HPLC H2O Microtubule Working Solution (3.2): • 1 ml PM buffer: PIPES pH 7.0, MgCl2, HPLC H2O, Paclitaxel, mix well, store at rt • Then add 26.4 μL of 10 mg/ml microtubules to 724 μL of the above PM buffer to make 750 μL of microtubule working solution @350 μg/mL microtubules (store at rt)
Stock HSET enzyme solution (3.1)—keep on ice • Add 1.33 μL 10.2 μM HSET Prepi (SEQ-000096_002-01_01) to 1358 μL assay buffer to make a 10 nM stock for a 5 nM final assay concentration (1/1020 dilution).
HSET/Microtubule working solution (3.3) • Mix solutions 3.1 and 3.2 in the ratio of 2.5:1 (1214.3 μL 3.1+485.7 μL 3.2) keep at rt for 15 min • 3.2 is diluted 3.5-fold, 3.1 is diluted 1.4-fold BLANK solution is 357 μL 2XAB+143 μL microtubule working solution 3.2. (Same proportions as HSET/Microtubule working solution (3.3))
ATP Working solution is 1 μL 10 mM UltraPure ATP (Promega kit)+999 μL ddH20 gives 10 μM ATP for a 3 μM final assay concentration, stored on ice.
Assay procedure in PROXIPLATE 384 PLUS WHITE (Perkin Elmer) plates (Remove 2.4 mL ADP Glo and 4.5 mL Kinase detection reagent from freezer to warm up to rt) • Add 3.5 μL BLANK solution to assay plate (column 12) • Add 3.5 μL HSET/Microtubule solution (3.3) (columns 1-11 & 13-24) • Centrifuge at 1000 rpm for 1 min • (pre-incubate enzyme and compound for 10 min)
Add 1.5 μL of 10 μM ATP to start reaction gives a final [HSET] of 5 nM, [ATP] of 3 μM and [microtubule] of 70 μg/mL, centrifuge at 1000 rpm for 1 min and incubated at rt for 80 min.
After the 80-minute incubation, stop reaction by adding 5 μL ADP-Glo reagent to all wells. Centrifuge for 1 min at 1000 rpm, leave for 40 min at rt.
In the dark/away from direct light, add 10 μL Kinase Detection Reagent (KDR) to all wells, Seal plate with a Topseal (Perkin Elmer Cat #6050185) and centrifuge as above, leave for 40 min at rt covered in foil. […]

Chain of HSET full length protein (Q9BW19 whole entry): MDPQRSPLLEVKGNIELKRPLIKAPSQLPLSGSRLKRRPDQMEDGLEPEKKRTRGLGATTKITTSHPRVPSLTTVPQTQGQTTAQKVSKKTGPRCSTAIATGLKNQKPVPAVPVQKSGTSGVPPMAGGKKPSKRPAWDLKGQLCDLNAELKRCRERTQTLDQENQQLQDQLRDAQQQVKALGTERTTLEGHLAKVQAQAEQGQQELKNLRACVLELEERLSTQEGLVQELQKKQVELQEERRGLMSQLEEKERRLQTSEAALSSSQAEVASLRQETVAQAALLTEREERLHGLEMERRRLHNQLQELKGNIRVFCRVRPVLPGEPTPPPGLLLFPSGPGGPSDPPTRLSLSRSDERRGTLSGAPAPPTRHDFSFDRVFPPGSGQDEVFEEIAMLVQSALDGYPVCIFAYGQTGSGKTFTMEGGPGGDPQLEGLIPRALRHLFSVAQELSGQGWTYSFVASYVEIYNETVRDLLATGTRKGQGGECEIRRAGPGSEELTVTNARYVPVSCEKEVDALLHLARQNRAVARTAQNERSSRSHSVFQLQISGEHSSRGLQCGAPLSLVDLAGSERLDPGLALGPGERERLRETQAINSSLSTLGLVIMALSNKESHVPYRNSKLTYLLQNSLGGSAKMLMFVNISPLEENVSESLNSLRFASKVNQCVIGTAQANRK

IC50 [nM]	Compound
4310	CCCOC(=O)c1cc(C(=O)NCCNc2nccc3ccc(-c4noc(C)n4)cc23)nn1C [Example 72, Propyl 1-methyl-3-((2-((7-(5-methyl-1,2,4-oxadiazol-3-yl)isoquinolin-1-yl)amino)ethyl)carbamoyl)-1 H-pyrazole-5-carboxylate]
132	Cc1nnc(-c2cccc(C(=O)N[C@H]3C[C@@H](C(=O)Nc4nc(C)c(C(=O)OC(C)(C)C)s4)C3)c2)o1 [Example 106, tert-Butyl 4-methyl-2-((1s,3s)-3-(3-(5-methyl-1,3,4-oxadiazol-2-yl)benzamido)cyclobutane-1-carboxamido)thiazole-5-carboxylate]
71	Cc1nc(-c2cccc(C(=O)NCCC(=O)Nc3nc(C)c(C(=O)OC(C)C)s3)n2)no1 [Example 278]
1210	CCOC(=O)c1sc(NC(=O)[C@@H](O)CNC(=O)c2cccc(C)c2)nc1C [Example 8, Ethyl (S)-2-(2-hydroxy-3-(3-methylbenzamido)propanamido)-4-methylthiazole-5-carboxylate]
15400	CC(=O)NCCCCOC(=O)c1sc(NC(=O)CCNC(=O)c2cccc(-c3noc(C)n3)c2)nc1C [Example 130, 4-Acetamidobutyl 4-methyl-2-(3-(3-(5-methyl-1,2,4-oxadiazol-3-yl)benzamido)propanamido)thiazole-5-carboxylate]
27	Cc1nc(-c2cccc(C(=O)NCCC(=O)Nc3nc(C)c(C(=O)OC4CCCC4)s3)c2)no1 [Example 122, Cyclopentyl-4-methyl-2-(3-(3-(5-methyl-1,2,4-oxadiazol-3-yl)benzamido)propanamido)thiazole-5-carboxylate]
11	CCCOC(=O)c1sc(NC(=O)CCNC(=O)c2cccc(-c3noc(C)n3)c2)nc1C [Example 63, Propyl 4-methyl-2-(3-(3-(5-methyl-1,2,4-oxadiazol-3-yl)benzamido)propanamido)thiazole-5-carboxylate]
155	Cc1nc(-c2cccc(C(=O)NCCC(=O)Nc3nc(C)c(C(=O)OC(C)(C)C)s3)n2)no1 [Example 277, tert-Butyl 4-methyl-2-(3-{[6-(5-methyl-1,2,4-oxadiazol-3-yl)pyridin-2-yl]formamido}propanamido)-1,3-thiazole-5-carboxylate]
616	CCCCCc1cc(NC(=O)[C@H](O)CNc2nccc3ccc(-c4noc(C)n4)cc23)nn1C [Example 189, (R)-2-hydroxy-3-((7-(5-methyl-1,2,4-oxadiazol-3-yl)isoquinolin-1-yl)amino)-N-(1-methyl-5-pentyl-1 H-pyrazol-3-yl)propenamide]
265	CNCCC[C@@H](CC(=O)Nc1nc(C)c(C(=O)O)s1)Nc1nccc2ccc(-c3noc(C)n3)cc12 [Example 169, (S)-4-methyl-2-(3-((7-(5-methyl-1,2,4-oxadiazol-3-yl)isoquinolin-1-yl)amino)-6-(methylamino)hexanamido)thiazole-5-carboxylic acid]
57	CCOC(=O)c1sc(NC(=O)C[C@H](CCCN)NC(=O)c2cccc(-c3noc(C)n3)c2)nc1C [Example 150, ethyl (S)-2-(6-amino-3-(3-(5-methyl-1,2,4-oxadiazol-3-yl)benzamido)hexanamido)-4-methylthiazole-5-carboxylate]
157	CCCOC(=O)c1cc(NC(=O)CCNC(=O)c2cccc(-c3noc(C)n3)c2)nn1C [Example 120, Propyl-1-methyl-3-(3-(3-(5-methyl-1,2,4-oxadiazol-3-yl)benzamido)propanamido)-1 H-pyrazole-5-carboxylate]
819	CCOC(=O)c1cnc(NC(=O)CCNC(=O)c2cccc(-c3noc(C)n3)c2)s1 [Example 61, Ethyl 2-(3-(3-(5-methyl-1,2,4-oxadiazol-3-yl)benzamido)propanamido)-thiazole-5-carboxylate]
44	CCOC(=O)c1sc(NC(=O)CCNC(=O)c2cc(C)cc(-c3noc(C)n3)c2)nc1C [Example 43, Ethyl 4-methyl-2-(3-(3-methyl-5-(5-methyl-1,2,4-oxadiazol-3-yl)benzamido)propanamido)thiazole-5-carboxylate]
59	Cc1nc(-c2ccc3ncnc(N[C@H]4C[C@@H](C(=O)N(C)c5nc(C)c(C(=O)OC(C)(C)C)s5)C4)c3c2)no1 [Example 49, tert-Butyl 4-methyl-2-((1 s,3s)-N-methyl-3-((6-(5-methyl-1,2,4-oxadiazol-3-yl)quinazolin-4-yl)amino)cyclobutane-1-carboxamido)thiazole-5-carboxylate formate]
5480	CCOC(=O)c1sc(NC(=O)C(C)CNC(=O)c2cccc(-c3noc(C)n3)c2)nc1C (stereo not drawn) [Example 145, Ethyl-4-methyl-2-(2-methyl-3-(3-(5-methyl-1,2,4-oxadiazol-3-yl)benzamido)propanamido)thiazole-5-carboxylate]
270	Cc1nc(-c2ccc3ccnc(N[C@H]4C[C@@](C)(C(=O)Nc5nc(C)c(C(=O)OC(C)(C)C)s5)C4)c3c2)no1 [Example 224, tert-Butyl 4-methyl-2-((1s,3s)-1-methyl-3-((7-(5-methyl-1,2,4-oxadiazol-3-yl)isoquinolin-1-yl)amino)cyclobutane-1-carboxamido)thiazole-5-carboxylate]
11	CCCOC(=O)c1sc(NC(=O)CCNC(=O)c2cc(-c3noc(C)n3)cc(C(F)(F)F)c2)nc1C [Example 32, Propyl 4-methyl-2-(3-(3-(5-methyl-1,2,4-oxadiazol-3-yl)-5-(trifluoromethyl)benzamido)propanamido)thiazole-5-carboxylate]
5700	Cc1nc(NC(=O)C[C@@H](CC#N)NC(=O)c2cccc(-c3cnn(C)c3)c2)sc1C(=O)OC(C)C [Example 204]
737	CCOC(=O)c1sc(NC(=O)CCNC(=O)c2cc(O)cc(C(=O)OC)c2)nc1C [Example 20, Ethyl 2-[3-[(3-hydroxy-5-methoxycarbonyl-benzoyl)amino]-propanoylamino]-4-methyl-thiazole-5-carboxylate]
2840	Cc1nc(-c2ccc3ccnc(N[C@H]4C[C@@H](C(=O)Nc5nc(C)c(C(C)(C)C)s5)N(C)C4)c3c2)no1 [Example 236, (2S,4S)-N-(5-(tert-butyl)-4-methylthiazol-2-yl)-1-methyl-4-((7-(5-methyl-1,2,4-oxadiazol-3-yl)isoquinolin-1-yl)amino)pyrrolidine-2-carboxamide]
